According to patent US20240166599A1, “INDOLE DERIVATIVES AS SEROTONERGIC AGENTS USEFUL FOR THE TREATMENT OF DISORDERS RELATED THERETO” (Mindset Pharma Inc., priority 2021, published 2024):

How the values were obtained:
[1] = molecular target: T1, human 5-HT2A (h5-HT2A) receptor (Homo sapiens, UniProt P28223); test: FLIPR assay, human 5-HT2A, agonist mode; type: cell-based
T1 construct: expressed in transfected cells
Description: I.c. Experimental Methods and Procedures: • 1. […] One day before the assays, the cells were detached using TrypLE™ Express and cells were counted using cell counter. […] 20000 cells/well were seeded in 30 μl/well culture medium to a 384-well cell plate and cells were incubated overnight at 37° C., 5% (v/v) CO2. • 4. On the assay day, 2×dye solution was prepared following the manual of the FLIPR® Calcium 6 Assay Kit: i. The dye was diluted with assay buffer (20 mM HEPES in 1×HBSS, PH7.4); ii. Probenecid was added to the final concentration of 5 mM; iii. […] Medium was removed from cell plate by flicking the cell plate on towel papers. • 6. […] The cell plate was placed on plate shaker, the plate was agitated at 600 rpm for 2 minutes. The plate was incubated at 37° C. for 2 hours followed by additional 15-minute incubation at 25° C. • 8. 3×compound in assay buffer was prepared: a. Reference compounds were diluted to required concentration with DMSO. The compounds were added to a 384-well compound plate; b. Serial dilutions were performed; c. 10 mM test compounds were added to the compound plate, and 3-fold serial dilutions were performed. d. […] Add 20 μl/well assay buffer to the compound plate; f. […] The cell plate, compound plate and tips were put into FLIPR, 10 μl of 3× compound was transferred to the cell plate per well with FLIPR.
• i. […] Calculated the percentage activation by using following equation: […]

[2] = Liver microsomes stability, human; settings: for Remaining Percentage (%) after 60 min, Human: human liver microsomes with NADPH, 2 μM; for half-life at 2 μM / microsomal CLint at 2 μM: human, microsomes
Description: (§1) The objective of this study was to estimate in vitro metabolic stability of representative compounds of the application in pooled human and male mouse liver microsomes. The concentrations of parent compounds in reaction systems were evaluated by LC-MS/MS for estimating the stability in pooled human and male mouse liver microsomes. The in vitro intrinsic clearances of test compounds were determined as well.
(§2) A master solution in the “Incubation Plate” containing phosphate buffer, ultra-pure H2O, MgCl2 solution and liver microsomes was made according to Table 3. The mixture was pre-warmed at 37° C. water bath for 5 minutes.
(§3) 40 μL of 10 mM NADPH solution was added to each well. The final concentration of NADPH was 1 mM. The negative control samples were prepared by replacing NADPH with 40 μL of ultra-pure H2O. Samples were prepared in duplicate. Negative controls were prepared in singlet.
(§4) The reaction was started with the addition of 4 μL of 200 μM test compounds or control compounds to each master solution to get the final concentration of 2 μM. This study was performed in duplicate.
(§5) Aliquots of 50 μL were taken from the reaction solution at 0, 15, 30, 45 and 60 minutes. The reaction solutions were stopped by the addition of 4 volumes of cold methanol with IS (100 nM alprazolam, 200 nM imipramine, 200 nM labetalol and 2 μM ketoprofen). Samples were centrifuged at 3,220 g for 40 minutes. Aliquot of 90 μL of the supernatant was mixed with 90 μL of ultra-pure H2O and then was used for LC-MS/MS analysis.
(§6) LC/MS analysis was performed for all samples from this study using a Shimadzu liquid chromatograph separation system equipped with degasser DGU-20A5R; solvent delivery unit LC-30AD; system controller SIL-30AC; column oven CTO-30A; CTC Analytics HTC PAL System. Mass spectrometric analysis was performed using an Triple Quad™ 5500 instrument.
(§7) All calculations were carried out using Microsoft Excel. Peak areas were determined from extracted ion chromatograms. The slope value, k, was determined by linear regression of the natural logarithm of the remaining percentage of the parent drug vs. incubation time curve.
(§8) The in vitro half-life (in vitro t1/2) was determined from the slope value:
(§9) Conversion of the in vitro t1/2 (min) into the in vitro intrinsic clearance (in vitro CLint, in μL/min/mg proteins) was done using the following equation (mean of duplicate determinations): […]

[3] = Liver microsomes stability, mouse; settings: for half-life at 2 μM / microsomal CLint at 2 μM: male, mouse, microsomes; for Remaining Percentage (%) after 60 min, Mouse: mouse liver microsomes with NADPH, 2 μM
Description: as §1, §2, §3, §4, §5, §6, §7, §8, §9

human 5-HT2A receptor = human 5-HT2A receptor (Homo sapiens, UniProt P28223); test: biochemical
Description: Human 5-HT2A: Radioligand Binding Assay:
II.3 Experiment Procedure: • i. Prepared the assay buffer following the table below;
• ii. Preparation of 8 doses of reference and test compounds starting from 10 mM stock solution as requested by 5-fold serial dilutions with 100%; • iii. Prepared (v/v) DMSO: a. 50 μl/well of 0.5% (v/v) PEI was added to UniFilter-96 GF/B plates. The plates were sealed and incubates at 4° C. for 3 hrs; b. After incubation, the plates were washed 3 times with ice-cold wash buffer (50 mM Tris, pH7.4); • iv. Preparation of assay plates: a. Cell membrane were diluted with assay buffer and 330 μl/well was added to 96 round deep well plates to reach a concentration of 20 μg/well; b. 8 concentrations of reference or test compounds were prepared and 110 μl/well was added to 96 round deep well plates; c. [3H]-ketanserin was diluted with assay buffer to 5 nM (5× final concentration) and 110 μl/well was added to 96 round deep well plates. • v. The plate was centrifuged at 1000 rpm for 30 secs and then agitated at 600 rpm, R.T. for 5 min. • vi. The plates were sealed and incubates at 27° C. for 90 min. • vii. The incubation was stopped by vacuum filtration onto GF/B filter plates followed by 4 times washing with ice-cold wash buffer (50 mM Tris, pH7.4). • viii. […] The filter plates were sealed and 40 μl/well of scintillation cocktail was added. • x. The plate was read by using a Microbeta2 microplate counter.
For reference and test compounds, the results are expressed as % Inhibition, using the normalization equation: N=100−100×(U−C2)/(C1−C2), where U is the unknown value, C1 is the average of high controls, and C2 is the average of low controls.

[4] = Liver microsomes stability, rat; settings: for Remaining Percentage (%) after 60 min, Rat: rat liver microsomes with NADPH, 2 μM; for half-life at 2 μM / microsomal CLint at 2 μM: rat, microsomes

Chain of human 5-HT2A receptor (P28223 whole entry): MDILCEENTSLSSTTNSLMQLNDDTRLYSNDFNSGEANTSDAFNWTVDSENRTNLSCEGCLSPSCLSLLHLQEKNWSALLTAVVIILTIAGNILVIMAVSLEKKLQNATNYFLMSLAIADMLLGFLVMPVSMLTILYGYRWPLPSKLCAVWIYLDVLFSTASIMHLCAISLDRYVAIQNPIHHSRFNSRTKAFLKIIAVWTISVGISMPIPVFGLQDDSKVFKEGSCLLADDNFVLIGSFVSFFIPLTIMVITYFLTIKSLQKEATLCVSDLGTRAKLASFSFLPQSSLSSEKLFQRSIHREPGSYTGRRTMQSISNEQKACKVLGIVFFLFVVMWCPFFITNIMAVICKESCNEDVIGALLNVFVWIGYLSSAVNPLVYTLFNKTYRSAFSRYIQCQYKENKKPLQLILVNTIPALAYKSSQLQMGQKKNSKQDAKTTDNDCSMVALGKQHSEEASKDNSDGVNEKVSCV
T1 sequence (P28223 whole entry): as above

SMILES | EC50 [1] [nM] | Remaining Percentage (%) after 60 min, Human [2] [%] | half-life at 2 μM [2] [min] | microsomal CLint at 2 μM [2] [µL/min/mg] | half-life at 2 μM [3] [min] | microsomal CLint at 2 μM [3] [µL/min/mg] | Remaining Percentage (%) after 60 min, Mouse [3] [%] | IC50 (human 5-HT2A receptor) [nM] | Remaining Percentage (%) after 60 min, Rat [4] [%] | half-life at 2 μM [4] [min] | microsomal CLint at 2 μM [4] [µL/min/mg]
[2H]C([2H])([2H])N(C([2H])([2H])[2H])C([2H])([2H])C([2H])([2H])c1c[nH]c2ccccc12 [I-A-1, 2-(1H-indol-3-yl)-N,N-bis(methyl-d3)ethan-1-amine-1,1,2,2-d4] | < 1000 | 0.46 | 7.73 | 19 | 87.2 | 39.2 | 62.07 | < 500 | 9.38 | 17.6 | 39.7
[2H]C([2H])([2H])Oc1ccc2[nH]cc(C([2H])([2H])C([2H])([2H])N(C([2H])([2H])[2H])C([2H])([2H])[2H])c2c1 [I-A-6, 2-(5-(methoxy-d3)-1H-indol-3-yl)-N,N-bis(methyl-d3)ethan-1-amine-1,1,2,2-d4] |  | 15.50 | 2.3 | 16.4 | 97.5 | 36.8 | 65.29 |  | 5.25 | 9.88 | 9.26
CN(C)CCc1c[nH]c2ccccc12 [DMT, N,N-dimethyltryptamine, reference compound] | < 1000 |  |  |  |  |  |  | < 500 |  |  | 
[2H]c1[nH]c2c([2H])c([2H])c([2H])c([2H])c2c1CCN(C)C [I-A-2, 2-(1H-indol-3-yl-2,4,5,6,7-d5)-N,N-dimethylethan-1-amine] | < 1000 | 0.76 | 8.52 | 18.8 | 17.4 | 41.2 | 59.38 | < 500 | 17.65 | 24 | 36
